Reference: patent publication US20060235076A1, “Medicinal composition for treating infection with drug-resistant staphylococcus aureus” (priority 2003, published 2006)
In brackets after ≈: the same amount, converted by molar mass. Where two headings read alike, the source gives them in different places.

Test system: MRSA and MSSA
Assay: Antibacterial activity of gallic acid, various gallates and multivalent phenol derivatives alone (agar plate dilution method, MIC)
Assay type: cell-based, Staphylococcus aureus
Conditions: Staphylococcus aureus
Experimental: According to the agar plate dilution method defined by Japan Society of Chemotherapy, MIC (Minimum inhibitory concentration) was determined. CAMHA was prepared by adding 50 mg/l of Ca-ion, 25 mg/l of Mg-ion, and 2% of NaCl to Mueller-Hinton II Agar (MHA), and it was used as a medium for use in the measurement of sensitivity. The bacterial liquid was incubated at 37° C. overnight and diluted to 10^6 CFU/ml with saline.
MIC for gallic acid, various gallates and multivalent phenol derivatives alone with MRSA and MSSA were determined as described in experiment 2.

[1] = COL, compound alone, read-out: MIC
[2] = MRSA #1, compound alone, read-out: MIC
[3] = MRSA #2, compound alone, read-out: MIC
[4] = MRSA #3, compound alone, read-out: MIC
[5] = MRSA #4, compound alone, read-out: MIC
[6] = MRSA #5, compound alone, read-out: MIC
[7] = MRSA #6, compound alone, read-out: MIC
[8] = MRSA #7, compound alone, read-out: MIC
[9] = MRSA #8, compound alone, read-out: MIC
[10] = MRSA #9, compound alone, read-out: MIC
[11] = MRSA #10, compound alone, read-out: MIC
[12] = MRSA #12, compound alone, read-out: MIC
[13] = MRSA #16, compound alone, read-out: MIC
[14] = MRSA #17, compound alone, read-out: MIC
[15] = MRSA #18, compound alone, read-out: MIC
[16] = MRSA #20, compound alone, read-out: MIC
[17] = MRSA #21, compound alone, read-out: MIC
[18] = MRSA #22, compound alone, read-out: MIC
[19] = MRSA #24, compound alone, read-out: MIC
[20] = MSSA #1003, compound alone, read-out: MIC
[21] = MSSA #1010, compound alone, read-out: MIC
[22] = MSSA #1020, compound alone, read-out: MIC
[23] = MSSA #1023, compound alone, read-out: MIC
[24] = MSSA #1029, compound alone, read-out: MIC
[25] = MSSA #1032, compound alone, read-out: MIC

Row | Compound | MIC [1] [µg/mL] | MIC [2] [µg/mL] | MIC [3] [µg/mL] | MIC [4] [µg/mL] | MIC [5] [µg/mL] | MIC [6] [µg/mL] | MIC [7] [µg/mL] | MIC [8] [µg/mL] | MIC [9] [µg/mL] | MIC [10] [µg/mL] | MIC [11] [µg/mL] | MIC [12] [µg/mL] | MIC [13] [µg/mL] | MIC [14] [µg/mL] | MIC [15] [µg/mL] | MIC [16] [µg/mL] | MIC [17] [µg/mL] | MIC [18] [µg/mL] | MIC [19] [µg/mL] | MIC [20] [µg/mL] | also measured
1 | CCCCCCCCCCCCCCCCOC(=O)c1cc(O)c(O)c(O)c1 [Cetyl gallate] | 250 (≈ 634 µM) | > 250 | 250 (≈ 634 µM) | > 250 | > 250 | > 250 | 125 (≈ 317 µM) | > 250 | > 250 | > 250 | 125 (≈ 317 µM) | > 250 | > 250 | > 250 | > 250 | > 250 | > 250 | > 250 | > 250 | > 250 | MIC (ATCC 6538 / MRSA / MSSA, ATCC6538, compound alone, read-out: MIC): > 250 µg/mL; MIC [21]: > 250 µg/mL; MIC [22]: > 250 µg/mL; MIC [23]: > 250 µg/mL; MIC [24]: 250 µg/mL (≈ 634 µM); MIC [25]: 250 µg/mL (≈ 634 µM); MIC50 (over all strains of Table 3-2, compound alone, read-out: MIC50): > 250 µg/mL
2 | CCCCCOC(=O)c1ccc(O)cc1 [n-Amyl 4-hydroxybenzoate] | 62.5 (≈ 300 µM) | 62.5 (≈ 300 µM) | 62.5 (≈ 300 µM) | 62.5 (≈ 300 µM) | 62.5 (≈ 300 µM) | 62.5 (≈ 300 µM) | 31.3 (≈ 150 µM) | 62.5 (≈ 300 µM) | 31.3 (≈ 150 µM) | 31.3 (≈ 150 µM) | 62.5 (≈ 300 µM) | 62.5 (≈ 300 µM) | 62.5 (≈ 300 µM) | 62.5 (≈ 300 µM) | 62.5 (≈ 300 µM) | 62.5 (≈ 300 µM) | 62.5 (≈ 300 µM) | 62.5 (≈ 300 µM) | 62.5 (≈ 300 µM) | 62.5 (≈ 300 µM) | MIC50: 62.5 µg/mL (≈ 300 µM); MIC (ATCC 6538 / MRSA / MSSA): 62.5 µg/mL (≈ 300 µM); MIC [21]: 62.5 µg/mL (≈ 300 µM); MIC [22]: 62.5 µg/mL (≈ 300 µM); MIC [23]: 31.3 µg/mL (≈ 150 µM); MIC [24]: 62.5 µg/mL (≈ 300 µM); MIC [25]: 62.5 µg/mL (≈ 300 µM)
3 | CCCC(=O)c1cc(O)c(O)cc1O [2′,4′,5′-trihydroxybutyrophenone] | 125 (≈ 637 µM) | 62.5 (≈ 319 µM) | 125 (≈ 637 µM) | 62.5 (≈ 319 µM) | 125 (≈ 637 µM) | 62.5 (≈ 319 µM) | 62.5 (≈ 319 µM) | 62.5 (≈ 319 µM) | 125 (≈ 637 µM) | 62.5 (≈ 319 µM) | 62.5 (≈ 319 µM) | 125 (≈ 637 µM) | 62.5 (≈ 319 µM) | 125 (≈ 637 µM) | 125 (≈ 637 µM) | 125 (≈ 637 µM) | 125 (≈ 637 µM) | 125 (≈ 637 µM) | 125 (≈ 637 µM) | 125 (≈ 637 µM) | MIC50: 125 µg/mL (≈ 637 µM); MIC (ATCC 6538 / MRSA / MSSA): 125 µg/mL (≈ 637 µM); MIC [21]: 125 µg/mL (≈ 637 µM); MIC [22]: 125 µg/mL (≈ 637 µM); MIC [23]: 62.5 µg/mL (≈ 319 µM); MIC [24]: 62.5 µg/mL (≈ 319 µM); MIC [25]: 62.5 µg/mL (≈ 319 µM)
